Data: patent US20050208496A1, “Methods of testing for bronchial asthma or chronic obstructive pulmonary disease” (Genox Research, Inc., priority 2002, published 2005)

Test system: respiratory epithelial cells

## IL-13: human IL-13 (Peprotech, Inc.) added to the medium at 50 ng/mL to stimulate respiratory epithelial cells
Lot 1, Day 3, AI method
  DD96 (31610_at) expression, fold change upon IL-13 stimulation: 6.3 fold
  DKFZP564O0823 (41402_at) expression, fold change upon IL-13 stimulation: 5 fold
  DKFZP566J091 (57197_at) expression fold change: 9.4 fold
  DKFZp564N1116 (37784_at) expression, fold change upon IL-13 stimulation: 6.4 fold
  DNAJA1 (276_at) expression fold change upon IL-13 stimulation: 2 fold
  DPYD (38220_at) expression fold change upon IL-13 stimulation: 2.7 fold
  EMILIN-2 (51628_at) expression fold change: 2.1 fold
  FABP4 (38430_at) expression, fold change upon IL-13 stimulation: 3.8 fold
  FBP1 (36495_at) expression fold change upon IL-13 stimulation: 3.2 fold
  FETUB (32620_at) expression fold change: 3.7 fold
  FETUB (33101_g_at) expression fold change: 2.2 fold
  FLJ10261 (43366_at) expression fold change: 7.9 fold
  FLJ22693 (53777_at) expression fold change: 2.8 fold
  FUT10 (908_at) expression fold change upon IL-13 stimulation: 5.8 fold
  G1P3 (1358_s_at) expression, fold change upon IL-13 stimulation: 7.1 fold
  GADD45G (39154_at) expression fold change upon IL-13 stimulation: 3.1 fold
  GBP5 (52615_at) expression fold change: 2.4 fold
  GS3686 (36927_at) expression, fold change upon IL-13 stimulation: 5.7 fold
  HAS3 (54604_at) expression fold change: 2.3 fold
  HDAC9 (37483_at) expression fold change upon IL-13 stimulation: 4.1 fold
  HLA-F (37420_i_at) expression, fold change upon IL-13 stimulation: 2.9 fold
  HLA-F (49203_f_at) expression fold change: 2.4 fold
  HS3ST1 (41556_s_at) expression fold change upon IL-13 stimulation: 3.4 fold
  ICAMt (32640_at) expression fold change upon IL-13 stimulation: 6.5 fold
  IFI27 (425_at) expression, fold change upon IL-13 stimulation: 3.8 fold
  IFI27 (48864_at) expression fold change: 2.9 fold
  IFI35 (464_s_at) expression, fold change upon IL-13 stimulation: 13.2 fold
  IFI44 (37641_at) expression, fold change upon IL-13 stimulation: 5.9 fold
  IFIT1 (915_at) expression, fold change upon IL-13 stimulation: 19.2 fold
  IFIT1 (32814_at) expression, fold change upon IL-13 stimulation: 10.6 fold
  IFIT4 (38584_at) expression, fold change upon IL-13 stimulation: 2.7 fold
  IFITM1 (675_at) expression, fold change upon IL-13 stimulation: 10.7 fold
  IL13RA2 (1016_s_at) expression fold change upon IL-13 stimulation: 10.2 fold
  IL19 (47855_at) expression fold change: 4 fold
  ILIRL1 (40322_at) expression, fold change upon IL-13 stimulation: 5.5 fold
  IRF7 (36412_s_at) expression fold change: 4.9 fold
  ISG15 (1107_s_at) expression, fold change upon IL-13 stimulation: 13.1 fold
  ISG15 (38432_at) expression, fold change upon IL-13 stimulation: 23.7 fold
  ISG20 (33304_at) expression, fold change upon IL-13 stimulation: 4.8 fold
  KIAA0537 (33787_at) expression, fold change upon IL-13 stimulation: 7.5 fold
  KIAA1268 (57050_at) expression fold change: 3.2 fold
  KIAAI268 (59516_at) expression fold change: 4.1 fold
  LAMP3 (37168_at) expression, fold change upon IL-13 stimulation: 6.3 fold
  LOC57118 (51085_at) expression fold change: 2.4 fold
  LOC64116 (40456_at) expression, fold change upon IL-13 stimulation: 2.2 fold
  MDA5 (51920_at) expression fold change: 6.6 fold
  MFHAS1 (50388_at) expression fold change: 2.3 fold
  MICB (35937_at) expression, fold change upon IL-13 stimulation: 3.3 fold
  MKP-L (38272_at) expression, fold change upon IL-13 stimulation: 2 fold
  MMP7 (668_s_at) expression, fold change upon IL-13 stimulation: 2.6 fold
  MX2 (879_at) expression fold change: 8.7 fold
  MXI (37014_at) expression fold change: 12.3 fold
  NCF2 (41038_at) expression fold change: 2.9 fold
  NK4 (39119_s_at) expression fold change upon IL-13 stimulation: 4 fold
  NOS2A (1948_f_at) expression fold change upon IL-13 stimulation: 5.3 fold
  NOS2A (48918_at) expression fold change: 4.3 fold
  OAF (39695_at) expression, fold change upon IL-13 stimulation: 3.4 fold
  OAS1 (38388_at) expression fold change upon IL-13 stimulation: 6.2 fold
  OAS1 (38389_at) expression fold change upon IL-13 stimulation: 4.5 fold
  OAS2 (39263_at) expression fold change upon IL-13 stimulation: 5 fold
  OSF-2 (1451_s_at) expression fold change upon IL-13 stimulation: 10.5 fold
  PHKB (46459_at) expression fold change: 2 fold
  PKD2 (38120_at) expression, fold change upon IL-13 stimulation: 2.8 fold
  PLOD2 (34795_at) expression fold change upon IL-13 stimulation: 2.3 fold
  PLS1 (39951_at) expression fold change: 2.5 fold
  PLSCR1 (32775_r_at) expression fold change upon IL-13 stimulation: 2.9 fold
  PSMB9 (38287_at) expression fold change upon IL-13 stimulation: 3.2 fold
  RIG-1 (59215_at) expression fold change: 7.2 fold
  SAMHD1 (34714_at) expression, fold change upon IL-13 stimulation: 3.4 fold
  SCYB10 (431_at) expression fold change upon IL-13 stimulation: 5.2 fold
  SCYB11 (35061_at) expression fold change upon IL-13 stimulation: 8.9 fold
  SECTM1 (41045_at) expression, fold change upon IL-13 stimulation: 6.5 fold
  SERPINB2 (37185_at) expression fold change: 2.1 fold
  SERPINB4 (1549_s_at) expression fold change: 4.2 fold
  SERPINB6 (34789_at) expression fold change: 2.2 fold
  SIAT1 (41352_at) expression fold change upon IL-13 stimulation: 4.7 fold
  SLC26A4, pendrin (36376_at) expression fold change: 18.8 fold
  SSI-1 (41592_at) expression, fold change upon IL-13 stimulation: 5.6 fold
  STAT1 (32860_g_at) expression fold change: 2.8 fold
  STAT1 (33338_at) expression fold change: 9.7 fold
  STAT1 (33339_g_at) expression fold change: 3.5 fold
  TGM2 (38404_at) expression fold change upon IL-13 stimulation: 8.5 fold
  THBS1 (115_at) expression fold change upon IL-13 stimulation: 10.4 fold
  TSPAN-3 (38612_at) expression, fold change upon IL-13 stimulation: 2.2 fold
  TXNRD1 (39425_at) expression fold change upon IL-13 stimulation: 2 fold
  UBE2L6 (40505_at) expression fold change upon IL-13 stimulation: 3.3 fold
  UFD1L (811_at) expression, fold change upon IL-13 stimulation: 2.3 fold
  WARS (38121_at) expression fold change upon IL-13 stimulation: 3.5 fold
  cig5 (38549_at) expression, fold change upon IL-13 stimulation: 10.1 fold
  diubiquitin (39959_at) expression, fold change upon IL-13 stimulation: 21.3 fold
Lot 1, Day 3, IMM method
  AA149682 (51925_at) expression fold change: 2.4 fold
  AA541787 (52622_at) expression fold change: 2.6 fold
  ADAM28 (35479_at) expression, fold change upon IL-13 stimulation: 4.8 fold
  AI565105 (54886_at) expression fold change: 2.2 fold
  AI659927 (54033_at) expression fold change: 8.3 fold
  AI989346 (52327_s_at) expression fold change: 2.3 fold
  ALOX15 (34636_at) expression, fold change upon IL-13 stimulation: 69.2 fold
  ARL7 (57151_at) expression fold change: 3.2 fold
  AW019985 (48826_s_at) expression fold change: 6 fold
  BAL (52167_at) expression fold change: 3.6 fold
  BRCA1 (626_s_at) expression fold change: 7.6 fold
  BST2 (39061_at) expression, fold change upon IL-13 stimulation: 8.3 fold
  C21orf11 (58957_at) expression fold change: 6.2 fold
  CDH6 (1620_at) expression fold change upon IL-13 stimulation: 4.2 fold
  CDH6 (57421_at) expression fold change: 4.7 fold
  CDH26 (46916_at) expression fold change: 16 fold
